Data set [1] is described as follows: High throughput kinetic solubility of the compound at pH 6.8. The data set is classed as physicochemical. As to conditions: buffer, read-out: Kinetic_solubility.
A short description of data set [2]: Thermodynamic aqueous solubility of the compound at pH 6.8. The data set is classed as physicochemical. The following applies: for solubility thermodynamic: aqueous, read-out: Therm_solubility; for Therm_solubility: buffer.
Data set [3] deals with Rattus norvegicus. The data set can be described thus: AUC in rat at 4.2 uM/kg, po. The data set is classed as ADME, organism-based. The following applies: in vivo.
The target of data set [4] is 3',5'-cyclic-AMP phosphodiesterase 4D (Homo sapiens, UniProt Q08499). The data set can be described thus: Inhibition of human PDE4D.
Data set [5] concerns Rattus norvegicus. The data set can be described thus: Half life in rat at 1.05 uM/kg, iv. The data set is classed as ADME, organism-based. The following applies: in vivo.
For data set [6], the system named is Rattus norvegicus. The data set can be described thus: Volume of distribution at steady state in rat at 1.05 uM/kg, iv. The data set is classed as ADME, organism-based. The following applies: in vivo.
In data set [7] the test system is Rattus norvegicus. The data set can be described thus: AUC in rat at 2.1 uM/kg, po. The following applies: in vivo. The data set is classed as ADME, organism-based.
The test system of data set [8] is Rattus norvegicus. The data set can be described thus: Oral bioavailability in rat at 2.1 uM/kg. The following applies: in vivo. The data set is classed as ADME, organism-based.
In data set [9] the test system is Rattus norvegicus. The data set can be described thus: Half life in po dosed rat. The data set is classed as ADME, organism-based. As to conditions: in vivo.
In data set [10] the test system is Rattus norvegicus. The data set can be described thus: AUC in po dosed rat. The data set is classed as ADME, organism-based. The following applies: in vivo.

SMILES strings stand for the structures. Values after ≈ are worked out from the molar mass of the structure shown. Where only a bound is given, the exact number is not on record here.

Chain of 3',5'-cyclic-AMP phosphodiesterase 4D (Q08499 whole entry): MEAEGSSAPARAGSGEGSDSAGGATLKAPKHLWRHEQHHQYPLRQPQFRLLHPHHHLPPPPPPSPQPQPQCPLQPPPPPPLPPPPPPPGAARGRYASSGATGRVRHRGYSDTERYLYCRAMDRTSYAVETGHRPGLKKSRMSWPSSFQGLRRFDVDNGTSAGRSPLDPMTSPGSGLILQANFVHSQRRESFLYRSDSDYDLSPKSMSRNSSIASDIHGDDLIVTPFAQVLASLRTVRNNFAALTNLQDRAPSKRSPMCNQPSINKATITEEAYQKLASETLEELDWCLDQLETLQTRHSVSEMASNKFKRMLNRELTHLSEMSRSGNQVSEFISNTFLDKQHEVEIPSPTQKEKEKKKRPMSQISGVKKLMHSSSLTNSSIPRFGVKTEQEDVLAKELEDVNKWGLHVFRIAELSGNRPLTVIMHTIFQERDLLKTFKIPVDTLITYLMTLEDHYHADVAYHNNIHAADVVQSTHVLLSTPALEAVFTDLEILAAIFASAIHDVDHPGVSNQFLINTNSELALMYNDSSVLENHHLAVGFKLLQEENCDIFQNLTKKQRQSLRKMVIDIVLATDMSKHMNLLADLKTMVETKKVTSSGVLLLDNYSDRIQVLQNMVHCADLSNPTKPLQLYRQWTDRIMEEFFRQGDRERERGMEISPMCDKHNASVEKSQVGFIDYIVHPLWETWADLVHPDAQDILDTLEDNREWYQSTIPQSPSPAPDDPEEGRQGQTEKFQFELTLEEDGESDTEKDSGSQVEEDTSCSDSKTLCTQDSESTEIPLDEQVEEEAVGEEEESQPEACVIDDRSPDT

As for `O=C(O)C1CCN(c2cc3cccnc3c(-c3cccc(F)c3)n2)CC1`, in data set [1], the solubility kinetic is above 70 µg/mL. For the same compound, in [2], the solubility thermodynamic was above 4 µg/mL. Further, the AUC with Rattus norvegicus [3] was 3919 µM/min.
Broadly, the IC50 is the concentration needed to halve the response being measured. Take `O=C(O)[C@H]1CC[C@H](c2cc3cccnc3c(-c3cccc(Cl)c3)n2)CC1`: in data set [1], the solubility kinetic was determined as 100 µg/mL (≈ 273 µM). The solubility thermodynamic in data set [2] was 0.14 µg/mL (≈ 0.382 µM). The same compound yielded a half-maximal inhibitory concentration (IC50) in [4] of 30 nM.
By Vdss is commonly meant a proportionality between amount in the body and measured concentration, not a real space. Read a low Vdss as little distribution into tissue. The compound `N#Cc1cccc(-c2nc(N3CCC(C(N)=O)CC3)cc3cccnc23)c1` returned a t1/2 with Rattus norvegicus [5] of 8 min. In addition, the IC50 in data set [4] stood at 8 nM. The Vdss in the data set on Rattus norvegicus [6] was 2.9 L/kg.
As for `N#Cc1cccc(-c2nc([C@H]3CC[C@H](C(=O)O)CC3)cc3cccnc23)c1`, the solubility kinetic in [1] came to 20 µg/mL (≈ 56 µM). Further, the Therm_solubility in [2] turned out to be 0.43 µg/mL. In the data set with Rattus norvegicus [3], this compound came in with an AUC of 112900 µM/min.
The compound `N#Cc1cccc(-c2nc(N3CCC(CO)CC3)cc3cccnc23)c1` displayed a 50% inhibitory concentration (IC50) in [4] of 13 nM.
For `COc1cccc(-c2nc([C@H]3CC[C@H](C(=O)O)CC3)cc3cccnc23)c1`, the solubility kinetic in [1] is 20 µg/mL (≈ 55.2 µM). The compound further showed a Therm_solubility in [2] of 0.15 µg/mL.
On to `N#Cc1cccc(-c2nc(N3CCC(C(=O)O)CC3)cc3cccnc23)c1`, for which the solubility kinetic in data set [1] worked out at 20 µg/mL (≈ 55.8 µM). The solubility thermodynamic in data set [2] was above 4 µg/mL. For the same compound, in the data set on Rattus norvegicus [7], the AUC was 2768 µM/min. In addition, the F in the data set with Rattus norvegicus [8] is reported as 157.5%.
For the compound `O=C(O)c1ccc(-c2cc3cccnc3c(-c3ccc4nonc4c3)n2)cc1`, in the data set with Rattus norvegicus [9], the t1/2 is listed as 12 min. In addition, the solubility thermodynamic in data set [2] was determined as 2.3 µg/mL (≈ 6.24 µM). The compound also gave an AUC in the data set with Rattus norvegicus [10] of 523 µM/min.
For the compound `N#Cc1cccc(-c2nc(N3CCOCC3)cc3cccnc23)c1`, in data set [4], the IC50 was found to be 3 nM.
Take `N#Cc1cccc(-c2nc(N3CCC(O)CC3)cc3cccnc23)c1`: the 50% inhibitory concentration (IC50) in data set [4] was found to be 22 nM.
`O=C(O)[C@H]1CC[C@H](c2cc3cccnc3c(-c3cccc(F)c3)n2)CC1`: the solubility kinetic in data set [1] was 10 µg/mL (≈ 28.5 µM). Moreover, the Therm_solubility in data set [2] came to 0.92 µg/mL. In addition, in the data set on Rattus norvegicus [7], the AUC came to 4408 µM/min.
